In ChEMBL document CHEMBL3102722, “Diarylacylhydrazones: Clostridium-selective antibacterials with activity against stationary-phase cells” (Bioorg Med Chem Lett, 2014):
≈ marks a conversion by molar mass, not a printed value. Calls of active or inactive are those of the source. The calls are words filed in the database; no cut-off is given here.

Columns and labels:
Clostridioides difficile [1] = assay: Antibacterial activity against Clostridium difficile CD196 assessed as growth inhibition after 20 to 24 hrs; assay type: functional
Bifidobacterium longum = assay: Antibacterial activity against Bifidobacterium longum ATCC BAA-999 assessed as growth inhibition after 20 to 24 hrs; assay type: functional
Staphylococcus aureus = assay: Antibacterial activity against Staphylococcus aureus 8325-4 assessed as growth inhibition after 20 to 24 hrs; assay type: functional
[2] = tested on: Limosilactobacillus reuteri; assay: Antibacterial activity against Lactobacillus reuteri ATCC 23272 assessed as growth inhibition after 20 to 24 hrs; assay type: functional
Clostridium perfringens = assay: Antibacterial activity against Clostridium perfringens ATCC 13124 assessed as growth inhibition after 20 to 24 hrs; assay type: functional
Escherichia coli = assay: Antibacterial activity against Escherichia coli ATCC 700927 assessed as growth inhibition after 20 to 24 hrs; assay type: functional
Streptococcus mutans = assay: Antibacterial activity against Streptococcus mutans ATCC 700610 assessed as growth inhibition after 20 to 24 hrs; assay type: functional
Enterococcus faecalis = assay: Antibacterial activity against Enterococcus faecalis ATCC 47077 assessed as growth inhibition after 20 to 24 hrs; assay type: functional
Bacteroides fragilis = assay: Antibacterial activity against Bacteroides fragilis ATCC 25285 assessed as growth inhibition after 20 to 24 hrs; assay type: functional; details: NCTC 9343
[3] = tested on: Bacteroides thetaiotaomicron; assay: Antibacterial activity against Bacteroides thetaiotaomicron ATCC 29148 assessed as growth inhibition after 20 to 24 hrs; assay type: functional
Lacticaseibacillus casei = assay: Antibacterial activity against Lactobacillus casei ATCC 334 assessed as growth inhibition after 20 to 24 hrs; assay type: functional
[4] = Cytotoxicity against human HepG2 cells assessed as concentration required to decrease cell viability incubated for 24 hrs followed by compound washout measured after 18 hrs by resazurin dye-based assay; details: read-out: Activity
FaDu = assay: Cytotoxicity against human FADU cells assessed as concentration required to decrease cell viability incubated for 24 hrs followed by compound washout measured after 18 hrs by resazurin dye-based assay
Clostridioides difficile [5] = assay: Antibacterial activity against Clostridium difficile GC1 clinical isolate assessed as growth inhibition after 20 to 24 hrs; assay type: functional
Clostridioides difficile [6] = assay: Antibacterial activity against Clostridium difficile UK6 clinical isolate assessed as growth inhibition after 20 to 24 hrs; assay type: functional
Clostridioides difficile [7] = assay: Antibacterial activity against stationary phase of Clostridium difficile CD196 assessed as cell killing at 1 to 20 X MIC after 3 to 6 hrs; assay type: functional
Clostridioides difficile [8] = assay: Antibacterial activity against Clostridium difficile VPI clinical isolate assessed as growth inhibition after 20 to 24 hrs; assay type: functional
Clostridioides difficile [9] = assay: Antibacterial activity against Clostridium difficile 10463 clinical isolate assessed as growth inhibition after 20 to 24 hrs; assay type: functional
[10] = Antibacterial activity against Clostridium difficile 630 clinical isolate assessed as growth inhibition after 20 to 24 hrs; assay type: functional, Clostridioides difficile 630; details: Clostridioides difficile
Clostridioides difficile [11] = assay: Antibacterial activity against Clostridium difficile UK1 clinical isolate assessed as growth inhibition after 20 to 24 hrs; assay type: functional

In the case of O=[N+]([O-])c1ccc(O)c([N+](=O)[O-])c1 [2,4-DINITROPHENOL], the MIC (Clostridioides difficile [1]) is reported as 50 µg/mL (≈ 272 µM), the MIC (Bifidobacterium longum) is reported as 25 µg/mL (≈ 136 µM) and the MIC (Staphylococcus aureus) is reported as 25 µg/mL (≈ 136 µM). For the same compound, the MIC [2] was over 50 µg/mL, the MIC (Clostridium perfringens) was over 50 µg/mL and the MIC (Escherichia coli) was over 50 µg/mL. The MIC (Streptococcus mutans) was over 50 µg/mL, the MIC (Enterococcus faecalis) was over 50 µg/mL and the MIC (Bacteroides fragilis) was 12.5 µg/mL (≈ 67.9 µM). The MIC [3] was 25 µg/mL (≈ 136 µM) and the MIC (Lacticaseibacillus casei) was over 50 µg/mL.

In the case of Clc1ccc(COC(Cn2ccnc2)c2ccc(Cl)cc2Cl)c(Cl)c1 (configuration not stated) [MICONAZOLE], the MCC at 24 h [4] is reported as 50 µg/mL and the Activity (FaDu) is reported as 50 µg/mL.

O=C(NNC(=O)c1ccc(-c2ccccc2)cc1)c1ccc(-c2ccccc2)cc1 showed an MIC (Clostridioides difficile [1]) of over 50 µg/mL.

With O/N=C/c1c(O)ccc2ccccc12 the MIC (Clostridioides difficile [1]) was over 50 µg/mL.

Compound O=C(NCc1ccccc1)c1ccc(-c2ccccc2)cc1 has an MIC (Clostridioides difficile [1]) of over 50 µg/mL.

Compound Cc1ccc(C(=O)N/N=C/c2cccc3ccccc23)cc1 has an MIC (Clostridioides difficile [1]) of over 50 µg/mL, an MIC (Bifidobacterium longum) of over 50 µg/mL and an MIC (Staphylococcus aureus) of over 50 µg/mL. It also gave an MIC [2] of over 50 µg/mL, an MIC (Clostridium perfringens) of over 50 µg/mL and an MIC (Escherichia coli) of over 50 µg/mL. For the same compound, the MIC (Streptococcus mutans) was over 50 µg/mL, the MIC (Enterococcus faecalis) was over 50 µg/mL and the MIC (Bacteroides fragilis) was over 50 µg/mL. For the same compound, the MIC [3] was over 50 µg/mL and the MIC (Lacticaseibacillus casei) was over 50 µg/mL.

Work on Cc1cc(C(=O)N/N=C/c2cccc3ccccc23)[nH]n1 yielded an MIC (Clostridioides difficile [1]) of over 50 µg/mL, an MIC (Bifidobacterium longum) of over 50 µg/mL and an MIC (Staphylococcus aureus) of over 50 µg/mL. The MIC [2] was over 50 µg/mL, the MIC (Clostridium perfringens) was over 50 µg/mL and the MIC (Escherichia coli) was over 50 µg/mL. The MIC (Streptococcus mutans) was over 50 µg/mL, the MIC (Enterococcus faecalis) was over 50 µg/mL and the MIC (Bacteroides fragilis) was over 50 µg/mL. It also gave an MIC [3] of over 50 µg/mL and an MIC (Lacticaseibacillus casei) of over 50 µg/mL.

In the case of Cc1cc(C(=O)N/N=C/c2c(O)ccc3ccccc23)c2cc(Br)ccc2n1, the MIC (Clostridioides difficile [1]) is reported as over 50 µg/mL, the MIC (Bifidobacterium longum) is reported as over 50 µg/mL and the MIC (Staphylococcus aureus) is reported as over 50 µg/mL. For the same compound, the MIC [2] was over 50 µg/mL, the MIC (Clostridium perfringens) was 25 µg/mL (≈ 57.6 µM) and the MIC (Escherichia coli) was over 50 µg/mL. It also gave an MIC (Streptococcus mutans) of over 50 µg/mL, an MIC (Enterococcus faecalis) of over 50 µg/mL and an MIC (Bacteroides fragilis) of over 50 µg/mL. For the same compound, the MIC [3] was over 50 µg/mL and the MIC (Lacticaseibacillus casei) was over 50 µg/mL.

With O=C(N/N=C/c1c(O)ccc2ccccc12)c1cccc(Br)c1 the MIC (Clostridioides difficile [1]) was 6.25 µg/mL (≈ 16.9 µM).

Compound O=C(N/N=C/c1c(O)ccc2ccccc12)c1cccc([N+](=O)[O-])c1 has an MIC (Clostridioides difficile [1]) of over 50 µg/mL.

For COc1ccc2ccccc2c1/C=N/N(C)C(=O)c1ccc(C)cc1, the MIC (Clostridioides difficile [1]) was over 50 µg/mL, the MIC (Bifidobacterium longum) was over 50 µg/mL and the MIC (Staphylococcus aureus) was over 50 µg/mL. It also gave an MIC [2] of over 50 µg/mL, an MIC (Clostridium perfringens) of over 50 µg/mL and an MIC (Escherichia coli) of over 50 µg/mL. For the same compound, the MIC (Streptococcus mutans) was over 50 µg/mL, the MIC (Enterococcus faecalis) was over 50 µg/mL and the MIC (Bacteroides fragilis) was over 50 µg/mL. The MIC [3] was over 50 µg/mL and the MIC (Lacticaseibacillus casei) was over 50 µg/mL.

With CN[C@H](CC(C)C)C(=O)N[C@H]1C(=O)N[C@@H](CC(N)=O)C(=O)N[C@H]2C(=O)N[C@H]3C(=O)N[C@H](C(=O)N[C@H](C(=O)O)c4cc(O)cc(O)c4-c4cc3ccc4O)[C@H](O)c3ccc(c(Cl)c3)Oc3cc2cc(c3O[C@@H]2O[C@H](CO)[C@@H](O)[C@H](O)[C@H]2O[C@H]2C[C@](C)(N)[C@H](O)[C@H](C)O2)Oc2ccc(cc2Cl)[C@H]1O [VANCOMYCIN] the MIC (Clostridioides difficile [1]) was 1 µg/mL (≈ 0.69 µM), the MIC (Bifidobacterium longum) was at most 0.78 µg/mL and the MCC at 24 h [4] was over 200 µg/mL. It also gave an MIC (Clostridioides difficile [5]) of 1.5 µg/mL (≈ 1.04 µM), an Activity (FaDu) of over 200 µg/mL and an MIC (Clostridioides difficile [6]) of 0.75 µg/mL (≈ 0.518 µM). For the same compound, the MIC (Staphylococcus aureus) was 3.13 µg/mL (≈ 2.16 µM), the MIC [2] was over 50 µg/mL and the MIC (Clostridium perfringens) was at most 0.78 µg/mL. The MIC (Escherichia coli) was over 50 µg/mL, the MIC (Streptococcus mutans) was 1.56 µg/mL (≈ 1.08 µM) and the Activity (Clostridioides difficile [7]) was “inactive”. For the same compound, the MIC (Enterococcus faecalis) was 3.13 µg/mL (≈ 2.16 µM), the MIC (Bacteroides fragilis) was 12.5 µg/mL (≈ 8.63 µM) and the MIC (Clostridioides difficile [8]) was 1.5 µg/mL (≈ 1.04 µM). The MIC [3] was 12.5 µg/mL (≈ 8.63 µM), the MIC (Clostridioides difficile [9]) was 1.5 µg/mL (≈ 1.04 µM) and the MIC (Lacticaseibacillus casei) was over 50 µg/mL. It also gave an MIC [10] of 0.75 µg/mL (≈ 0.518 µM) and an MIC (Clostridioides difficile [11]) of 1.5 µg/mL (≈ 1.04 µM).

With COc1cccc(/C=N/NC(=O)c2cc(C)nc3ccc(Br)cc23)c1O the MIC (Clostridioides difficile [1]) was 6.25 µg/mL (≈ 15.1 µM), the MIC (Bifidobacterium longum) was over 50 µg/mL and the MIC (Staphylococcus aureus) was over 50 µg/mL. The MIC [2] was over 50 µg/mL, the MIC (Clostridium perfringens) was 6.25 µg/mL (≈ 15.1 µM) and the MIC (Escherichia coli) was over 50 µg/mL. For the same compound, the MIC (Streptococcus mutans) was over 50 µg/mL, the MIC (Enterococcus faecalis) was over 50 µg/mL and the MIC (Bacteroides fragilis) was over 50 µg/mL. For the same compound, the MIC [3] was over 50 µg/mL and the MIC (Lacticaseibacillus casei) was over 50 µg/mL.

For CC(=O)N/N=C/c1ccccc1, the MIC (Clostridioides difficile [1]) was over 50 µg/mL.

For COc1cccc(/C=N/NC(=O)c2cc(C)nc3ccc(Br)cc23)c1, the MIC (Clostridioides difficile [1]) was over 50 µg/mL, the MIC (Bifidobacterium longum) was over 50 µg/mL and the MIC (Staphylococcus aureus) was over 50 µg/mL. The MIC [2] was over 50 µg/mL, the MIC (Clostridium perfringens) was over 50 µg/mL and the MIC (Escherichia coli) was over 50 µg/mL. The MIC (Streptococcus mutans) was over 50 µg/mL, the MIC (Enterococcus faecalis) was over 50 µg/mL and the MIC (Bacteroides fragilis) was over 50 µg/mL. The MIC [3] was over 50 µg/mL and the MIC (Lacticaseibacillus casei) was over 50 µg/mL.

In the case of COc1cccc(/C=N/NC(=O)c2cc(C)n[nH]2)c1O, the MIC (Clostridioides difficile [1]) is reported as over 50 µg/mL, the MIC (Bifidobacterium longum) is reported as over 50 µg/mL and the MIC (Staphylococcus aureus) is reported as over 50 µg/mL. For the same compound, the MIC [2] was over 50 µg/mL, the MIC (Clostridium perfringens) was over 50 µg/mL and the MIC (Escherichia coli) was over 50 µg/mL. The MIC (Streptococcus mutans) was over 50 µg/mL, the MIC (Enterococcus faecalis) was over 50 µg/mL and the MIC (Bacteroides fragilis) was over 50 µg/mL. For the same compound, the MIC [3] was over 50 µg/mL and the MIC (Lacticaseibacillus casei) was over 50 µg/mL.

With Cc1cc(C(=O)N/N=C/c2ccc([N+](=O)[O-])o2)[nH]n1 the MIC (Clostridioides difficile [1]) was 0.78 µg/mL (≈ 2.96 µM), the MIC (Bifidobacterium longum) was at most 0.78 µg/mL and the MIC (Staphylococcus aureus) was 1.56 µg/mL (≈ 5.93 µM). It also gave an MIC [2] of 12.5 µg/mL (≈ 47.5 µM), an MIC (Clostridium perfringens) of at most 12.5 µg/mL and an MIC (Escherichia coli) of 12.5 µg/mL (≈ 47.5 µM). The MIC (Streptococcus mutans) was 1.56 µg/mL (≈ 5.93 µM), the MIC (Enterococcus faecalis) was 12.5 µg/mL (≈ 47.5 µM) and the MIC (Bacteroides fragilis) was at most 3.13 µg/mL. For the same compound, the MIC [3] was at most 3.13 µg/mL and the MIC (Lacticaseibacillus casei) was 6.25 µg/mL (≈ 23.7 µM).
